According to the kinase profiling compilation of Christmann-Franck et al. (2016):

Assays:
Test in all cases: KINOMEscan competition binding
Conditions in all cases: compound 10.0 µM
[1] = target: ACVR2B (human) (UniProt Q13705)
[2] = target: AXL (human) (UniProt P30530)
[3] = target: CASK (human) (UniProt O14936)
[4] = target: CDC42BPA (human) (UniProt Q5VT25)
[5] = target: CDK14 (human) (UniProt O94921)
[6] = target: CDK7 (human) (UniProt P50613)
[7] = target: CDKL2 (human) (UniProt Q92772)
[8] = target: CSNK1D (human) (UniProt P48730)
[9] = target: CSNK1E (human) (UniProt P49674)
[10] = target: CSNK1G1 (human) (UniProt Q9HCP0)
[11] = target: CSNK1G3 (human) (UniProt Q9Y6M4)
[12] = target: DAPK2 (human) (UniProt Q9UIK4)
[13] = target: DYRK2 (human) (UniProt Q92630)
[14] = target: EPHA8 (human) (UniProt P29322)
[15] = target: EPHB2 (human) (UniProt P29323)
Chain of EPHB2 (human) (P29323 whole entry, looked up): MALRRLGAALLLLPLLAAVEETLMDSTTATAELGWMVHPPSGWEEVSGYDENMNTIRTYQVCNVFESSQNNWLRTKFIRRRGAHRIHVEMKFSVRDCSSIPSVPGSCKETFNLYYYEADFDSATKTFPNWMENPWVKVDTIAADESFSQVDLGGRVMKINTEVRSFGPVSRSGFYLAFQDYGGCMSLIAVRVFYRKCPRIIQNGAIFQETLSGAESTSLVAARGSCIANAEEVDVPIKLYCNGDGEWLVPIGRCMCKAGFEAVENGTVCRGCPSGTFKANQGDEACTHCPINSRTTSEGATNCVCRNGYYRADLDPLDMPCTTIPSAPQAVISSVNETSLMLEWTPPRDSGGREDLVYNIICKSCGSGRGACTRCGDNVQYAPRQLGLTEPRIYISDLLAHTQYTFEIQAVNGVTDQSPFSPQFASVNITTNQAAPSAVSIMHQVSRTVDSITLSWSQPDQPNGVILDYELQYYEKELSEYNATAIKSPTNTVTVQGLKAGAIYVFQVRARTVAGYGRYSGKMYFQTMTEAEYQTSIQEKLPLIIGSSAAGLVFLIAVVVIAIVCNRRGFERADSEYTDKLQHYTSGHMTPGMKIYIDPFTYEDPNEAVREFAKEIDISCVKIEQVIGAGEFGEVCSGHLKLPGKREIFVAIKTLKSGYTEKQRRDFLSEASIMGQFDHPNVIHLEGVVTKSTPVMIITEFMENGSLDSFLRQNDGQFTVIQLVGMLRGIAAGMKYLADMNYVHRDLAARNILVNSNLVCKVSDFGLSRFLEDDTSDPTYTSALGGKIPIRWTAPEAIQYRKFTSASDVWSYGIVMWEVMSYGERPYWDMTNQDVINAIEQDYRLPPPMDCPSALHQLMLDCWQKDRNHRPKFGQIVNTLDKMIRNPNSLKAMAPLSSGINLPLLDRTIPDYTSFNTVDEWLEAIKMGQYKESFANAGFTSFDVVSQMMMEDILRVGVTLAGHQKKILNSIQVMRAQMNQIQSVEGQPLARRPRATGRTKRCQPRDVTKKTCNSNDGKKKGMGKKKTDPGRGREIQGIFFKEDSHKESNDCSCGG

[16] = target: ERBB2 (human) (UniProt P04626)
[17] = target: ERBB4 (human) (UniProt Q15303)
Chain of ERBB4 (human) (Q15303 whole entry, looked up): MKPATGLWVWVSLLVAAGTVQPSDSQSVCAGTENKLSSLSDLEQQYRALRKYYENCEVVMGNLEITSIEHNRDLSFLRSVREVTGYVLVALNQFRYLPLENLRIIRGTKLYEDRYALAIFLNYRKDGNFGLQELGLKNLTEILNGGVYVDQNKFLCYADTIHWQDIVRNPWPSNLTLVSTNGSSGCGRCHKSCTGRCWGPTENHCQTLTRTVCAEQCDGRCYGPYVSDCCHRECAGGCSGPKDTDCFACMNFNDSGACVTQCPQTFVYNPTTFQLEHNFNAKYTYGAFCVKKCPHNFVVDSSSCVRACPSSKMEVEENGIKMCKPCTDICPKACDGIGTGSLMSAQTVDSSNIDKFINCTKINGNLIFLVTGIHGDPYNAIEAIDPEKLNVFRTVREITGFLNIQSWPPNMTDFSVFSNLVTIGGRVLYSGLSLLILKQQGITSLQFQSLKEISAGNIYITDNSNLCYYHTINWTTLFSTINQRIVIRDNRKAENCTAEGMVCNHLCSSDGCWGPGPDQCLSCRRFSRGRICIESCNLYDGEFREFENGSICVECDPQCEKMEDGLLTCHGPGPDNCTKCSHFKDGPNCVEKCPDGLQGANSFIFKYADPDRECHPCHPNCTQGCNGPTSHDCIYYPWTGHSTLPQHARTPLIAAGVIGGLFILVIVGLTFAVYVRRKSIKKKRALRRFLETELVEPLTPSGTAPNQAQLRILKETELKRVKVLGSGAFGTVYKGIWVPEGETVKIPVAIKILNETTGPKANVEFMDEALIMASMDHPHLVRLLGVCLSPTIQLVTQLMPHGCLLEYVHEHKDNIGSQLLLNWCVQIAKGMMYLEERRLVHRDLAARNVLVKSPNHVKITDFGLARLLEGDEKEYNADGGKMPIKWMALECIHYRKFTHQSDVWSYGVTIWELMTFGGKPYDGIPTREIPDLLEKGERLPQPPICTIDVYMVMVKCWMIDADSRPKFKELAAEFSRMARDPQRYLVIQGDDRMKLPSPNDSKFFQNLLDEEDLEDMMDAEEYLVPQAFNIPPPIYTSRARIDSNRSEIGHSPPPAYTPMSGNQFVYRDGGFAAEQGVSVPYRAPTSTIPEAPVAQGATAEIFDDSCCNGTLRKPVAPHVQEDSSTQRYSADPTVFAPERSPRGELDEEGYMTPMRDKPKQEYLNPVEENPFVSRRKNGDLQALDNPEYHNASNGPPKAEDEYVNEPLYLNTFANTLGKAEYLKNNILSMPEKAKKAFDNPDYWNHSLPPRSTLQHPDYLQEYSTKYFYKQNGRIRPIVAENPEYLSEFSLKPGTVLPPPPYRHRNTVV

[18] = target: FER (human) (UniProt P16591)
[19] = target: FGFR3 (human) (UniProt P22607)
[20] = target: IGF1R (human) (UniProt P08069)
[21] = target: INSRR (human) (UniProt P14616)
[22] = target: LYN (human) (UniProt P07948)
[23] = target: MAP3K11 (human) (UniProt Q16584)
[24] = target: MAPK11 (human) (UniProt Q15759)
[25] = target: MARK2 (human) (UniProt Q7KZI7)
[26] = target: MERTK (human) (UniProt Q12866)
[27] = target: MINK1 (human) (UniProt Q8N4C8)
[28] = target: NLK (human) (UniProt Q9UBE8)
[29] = target: OXSR1 (human) (UniProt O95747)
[30] = target: PAK2 (human) (UniProt Q13177)
[31] = target: PIK3C2B (human) (UniProt O00750)
[32] = target: PIK3CB (human) (UniProt P42338)
[33] = target: PRKAA1 (human) (UniProt Q13131)
[34] = target: PRPF4B (human) (UniProt Q13523)
Chain of PRPF4B (human) (Q13523 whole entry, looked up): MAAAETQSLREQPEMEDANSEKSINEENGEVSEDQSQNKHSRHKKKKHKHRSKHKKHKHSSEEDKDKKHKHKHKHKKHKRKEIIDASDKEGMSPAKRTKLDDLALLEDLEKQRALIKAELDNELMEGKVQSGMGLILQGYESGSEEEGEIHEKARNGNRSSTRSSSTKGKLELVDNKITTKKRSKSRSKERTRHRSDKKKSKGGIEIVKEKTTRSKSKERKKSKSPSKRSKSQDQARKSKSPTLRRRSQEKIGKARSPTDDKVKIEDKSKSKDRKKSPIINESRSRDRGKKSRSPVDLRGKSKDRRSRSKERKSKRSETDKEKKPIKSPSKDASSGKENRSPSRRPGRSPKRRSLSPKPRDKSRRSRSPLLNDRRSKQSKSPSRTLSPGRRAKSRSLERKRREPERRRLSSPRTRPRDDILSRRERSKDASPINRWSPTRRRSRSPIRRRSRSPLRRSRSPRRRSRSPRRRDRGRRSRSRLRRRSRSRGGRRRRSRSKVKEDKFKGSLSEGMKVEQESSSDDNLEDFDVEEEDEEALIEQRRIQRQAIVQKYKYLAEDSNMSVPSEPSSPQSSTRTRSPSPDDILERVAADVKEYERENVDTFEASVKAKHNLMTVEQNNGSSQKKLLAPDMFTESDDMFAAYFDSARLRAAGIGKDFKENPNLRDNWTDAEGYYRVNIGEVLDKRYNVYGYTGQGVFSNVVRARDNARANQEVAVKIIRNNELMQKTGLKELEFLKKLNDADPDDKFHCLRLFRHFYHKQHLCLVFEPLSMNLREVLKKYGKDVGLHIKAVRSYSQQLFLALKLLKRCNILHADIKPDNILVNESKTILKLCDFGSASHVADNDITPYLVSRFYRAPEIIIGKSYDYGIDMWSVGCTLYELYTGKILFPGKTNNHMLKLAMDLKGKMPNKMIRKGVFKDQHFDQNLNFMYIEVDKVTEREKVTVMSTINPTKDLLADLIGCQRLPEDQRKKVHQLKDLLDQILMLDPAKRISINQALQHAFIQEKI

[35] = target: RET (human) (UniProt P07949)
Chain of RET (human) (P07949 whole entry, looked up): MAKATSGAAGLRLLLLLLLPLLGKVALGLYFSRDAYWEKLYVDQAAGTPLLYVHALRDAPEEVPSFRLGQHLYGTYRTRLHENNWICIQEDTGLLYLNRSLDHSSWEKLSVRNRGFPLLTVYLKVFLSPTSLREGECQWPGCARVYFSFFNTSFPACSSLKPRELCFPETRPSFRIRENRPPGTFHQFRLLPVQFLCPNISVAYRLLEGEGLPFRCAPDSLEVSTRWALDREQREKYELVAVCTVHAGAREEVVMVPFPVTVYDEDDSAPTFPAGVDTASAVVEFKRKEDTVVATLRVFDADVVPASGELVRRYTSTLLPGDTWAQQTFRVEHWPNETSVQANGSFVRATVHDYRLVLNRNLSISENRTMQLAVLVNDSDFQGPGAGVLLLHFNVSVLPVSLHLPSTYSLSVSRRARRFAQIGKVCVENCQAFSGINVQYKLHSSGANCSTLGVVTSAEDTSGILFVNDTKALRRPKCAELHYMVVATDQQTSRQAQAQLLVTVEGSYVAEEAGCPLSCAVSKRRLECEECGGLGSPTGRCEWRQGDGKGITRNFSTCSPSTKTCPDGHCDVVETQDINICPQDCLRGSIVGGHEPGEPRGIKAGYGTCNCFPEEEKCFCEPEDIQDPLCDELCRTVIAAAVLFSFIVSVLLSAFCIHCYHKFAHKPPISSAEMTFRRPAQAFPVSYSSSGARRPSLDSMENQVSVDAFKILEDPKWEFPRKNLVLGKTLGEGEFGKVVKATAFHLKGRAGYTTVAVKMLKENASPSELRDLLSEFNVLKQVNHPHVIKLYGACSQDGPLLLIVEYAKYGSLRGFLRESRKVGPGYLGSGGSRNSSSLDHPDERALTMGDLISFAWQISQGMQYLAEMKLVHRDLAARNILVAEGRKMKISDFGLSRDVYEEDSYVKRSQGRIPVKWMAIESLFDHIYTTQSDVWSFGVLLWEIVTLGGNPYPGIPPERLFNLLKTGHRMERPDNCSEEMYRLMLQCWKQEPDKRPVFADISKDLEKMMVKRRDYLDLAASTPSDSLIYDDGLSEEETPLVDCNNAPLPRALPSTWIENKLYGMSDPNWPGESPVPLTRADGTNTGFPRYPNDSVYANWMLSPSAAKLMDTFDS

[36] = target: RIOK2 (human) (UniProt Q9BVS4)
[37] = target: STK33 (human) (UniProt Q9BYT3)
[38] = target: TESK1 (human) (UniProt Q15569)
[39] = target: TLK2 (human) (UniProt Q86UE8)
[40] = target: VRK2 (human) (UniProt Q86Y07)

Chain of ACVR2B (human) (Q13705 whole entry, looked up): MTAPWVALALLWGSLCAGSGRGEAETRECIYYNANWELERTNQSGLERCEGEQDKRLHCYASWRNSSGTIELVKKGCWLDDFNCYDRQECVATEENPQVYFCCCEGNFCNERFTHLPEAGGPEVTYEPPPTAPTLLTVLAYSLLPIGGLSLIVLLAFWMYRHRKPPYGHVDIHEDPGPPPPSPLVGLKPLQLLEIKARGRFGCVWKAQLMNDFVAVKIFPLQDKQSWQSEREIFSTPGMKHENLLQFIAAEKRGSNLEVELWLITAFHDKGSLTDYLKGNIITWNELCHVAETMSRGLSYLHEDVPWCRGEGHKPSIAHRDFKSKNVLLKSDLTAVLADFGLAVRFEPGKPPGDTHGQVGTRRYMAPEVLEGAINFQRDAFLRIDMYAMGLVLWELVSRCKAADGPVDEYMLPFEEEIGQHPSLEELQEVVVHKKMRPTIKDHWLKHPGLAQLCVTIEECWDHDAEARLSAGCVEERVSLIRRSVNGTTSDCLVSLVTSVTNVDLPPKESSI

Compound | kinase still bound, per cent of control [1] | kinase still bound, per cent of control [2] | kinase still bound, per cent of control [3] | kinase still bound, per cent of control [4] | kinase still bound, per cent of control [5] | kinase still bound, per cent of control [6] | kinase still bound, per cent of control [7] | kinase still bound, per cent of control [8] | kinase still bound, per cent of control [9] | kinase still bound, per cent of control [10] | kinase still bound, per cent of control [11] | kinase still bound, per cent of control [12] | kinase still bound, per cent of control [13] | kinase still bound, per cent of control [14] | kinase still bound, per cent of control [15] | kinase still bound, per cent of control [16] | kinase still bound, per cent of control [17] | kinase still bound, per cent of control [18] | kinase still bound, per cent of control [19] | kinase still bound, per cent of control [20] | further results
COc1ccc(N(C(=O)Oc2c(C)cccc2C)c2ccnc(Nc3ccc(N4CCN(C)CC4)cc3)n2)c(OC)c1 | 1.8% | 17% | 90% | 16% | 93% | 100% | 0.5% | 82% | 23% | 95% | 87% | 100% | 80% | 0.2% | 0% | 15% | 0.75% | 0.85% | 1% | 100% | kinase still bound, per cent of control [21]: 100%; kinase still bound, per cent of control [22]: 0%; kinase still bound, per cent of control [23]: 8.8%; kinase still bound, per cent of control [24]: 11%; kinase still bound, per cent of control [25]: 87%; kinase still bound, per cent of control [26]: 20%; kinase still bound, per cent of control [27]: 14%; kinase still bound, per cent of control [28]: 3.9%; kinase still bound, per cent of control [29]: 93%; kinase still bound, per cent of control [30]: 58%; kinase still bound, per cent of control [31]: 11%; kinase still bound, per cent of control [32]: 100%; kinase still bound, per cent of control [33]: 23%; kinase still bound, per cent of control [34]: 55%; kinase still bound, per cent of control [35]: 0.1%; kinase still bound, per cent of control [36]: 83%; kinase still bound, per cent of control [37]: 28%; kinase still bound, per cent of control [38]: 0%; kinase still bound, per cent of control [39]: 76%; kinase still bound, per cent of control [40]: 100%
COc1cc(C(=O)N2CCC(N3CCN(C)CC3)CC2)ccc1Nc1ncc2c(n1)N(C)c1ccccc1C(=O)N2C | 100% | 100% | 85% | 100% | 81% | 86% | 100% | 81% | 95% | 100% | 93% | 67% | 76% | 80% | 100% | 100% | 100% | 51% | 80% | 96% | kinase still bound, per cent of control [21]: 97%; kinase still bound, per cent of control [22]: 100%; kinase still bound, per cent of control [23]: 100%; kinase still bound, per cent of control [24]: 60%; kinase still bound, per cent of control [25]: 100%; kinase still bound, per cent of control [26]: 100%; kinase still bound, per cent of control [27]: 77%; kinase still bound, per cent of control [28]: 50%; kinase still bound, per cent of control [29]: 88%; kinase still bound, per cent of control [30]: 65%; kinase still bound, per cent of control [31]: 100%; kinase still bound, per cent of control [32]: 96%; kinase still bound, per cent of control [33]: 51%; kinase still bound, per cent of control [34]: 93%; kinase still bound, per cent of control [35]: 100%; kinase still bound, per cent of control [36]: 100%; kinase still bound, per cent of control [37]: 10%; kinase still bound, per cent of control [38]: 82%; kinase still bound, per cent of control [39]: 99%; kinase still bound, per cent of control [40]: 99%
